Assay results published in US9951088B2, “D2 receptor modulators and methods of use thereof in the treatment of diseases and disorders” (SUNOVION PHARMACEUTICALS INC., priority 2012, dated 2018).

Key:
[1] = biological target: T1, long isoform of human D2 receptor (Homo sapiens, UniProt P14416); experiment: Arrestin Agonist Assay (DRD2L PathHunter CHO-K1 cells, β-arrestin recruitment); settings: for Emax: CHO-K1, read-out: β-arrestin (agonist mode) Emax
Protocol: (§1) Cell Lines: Activities of the compounds were assessed using a Chinese Hamster Ovary (CHO—K1) cell line that recombinantly expressed the long isoform of human D2 receptor (DRD2L PathHunter cells). The D2 receptor DNA sequence was modified to contain a “ProLink” at its C-terminus which allowed complementation with an “enzyme acceptor” (EA)-tagged β-arrestin protein. The recruitment of the O-arrestin by the D2 receptor led to complementation of the ProLink and EA and formation of active β-galactosidase which generated a D2-specific signal that was measured.
Arrestin Agonist Assay: One day prior to testing, a vial of high density stock of DRD2L PathHunter cells was thawed, and 1×10^7 cells diluted into 40 mL of growth media (Ham's F12/10% HI FBS/1% PSG). 20 μL cells per well were seeded directly into assay plates, and the plates were allowed to rest for 1 h at RT before incubating in a plate incubator overnight.
5 μL diluted compound was added to cells in each well, and the assay plate was incubated for 90 min at 37° C. 12.5 μL PathHunter detection reagent was added to each well of the assay plate, which was then covered and incubated for 1 h at RT. The plate was read on an Envision reader using the Luminescence protocol, and the data were exported for analysis.
(§2) The agonist Emax results were expressed as a percent of the dopamine control response ((measured specific response/control specific agonist response)×100) obtained in the presence of test article. The EC50 values (concentration producing a half-maximal specific response) were determined by non-linear regression analysis of the concentration-response curves.

[2] = biological target: T1, long isoform of human D2 receptor; experiment: Arrestin Antagonist Assay (DRD2L PathHunter CHO-K1 cells, vs EC80 dopamine); settings: for Emax: CHO-K1, read-out: β-arrestin (antagonist mode) Imax
Protocol: as §1
Arrestin Antagonist Assay: One day prior to testing, a vial of high density stock of DRD2L PathHunter cells was thawed, and 1×10^7 cells diluted into 40 mL of growth media (Ham's F12/10% HI FBS/1% PSG). 20 μL cells per well were seeded directly into assay plates, and the plates were allowed to rest for 1 h at RT before incubating in a plate incubator overnight.
The plate was incubated for 30 min at 37° C. 15 μL PathHunter detection reagent was added to each well of the assay plate, which was then covered and incubated for 1 h at RT. The plate was read on an Envision reader using the Luminescence protocol, and the data were exported for analysis.
The IC50 values (concentration producing a half-maximal inhibitory response) were determined by non-linear regression analysis of the concentration-response curves.

[3] = biological target: T1, long isoform of human D2 receptor; experiment: cAMP HTRF Agonist Assay (DRD2L PathHunter CHO-K1 cells, forskolin-stimulated); settings: for Emax: CHO-K1, read-out: cAMP (agonist mode) Emax
Protocol: Cell Lines: Activities of the compounds were assessed using a Chinese Hamster Ovary (CHO—K1) cell line that recombinantly expressed the long isoform of human D2 receptor (DRD2L PathHunter cells). The D2 receptor DNA sequence was modified to contain a “ProLink” at its C-terminus which allowed complementation with an “enzyme acceptor” (EA)-tagged β-arrestin protein. The recruitment of the O-arrestin by the D2 receptor led to complementation of the ProLink and EA and formation of active β-galactosidase which generated a D2-specific signal that was measured. The cAMP assay was measured in the same D2-expressing cell line. The D2 receptor inhibited cAMP formation so that the basal levels of cAMP were increased by the addition of an adenylate cyclase stimulator, forskolin.
cAMP HTRF Agonist Assay: Two days prior to testing, a vial of high density stock of DRD2L PathHunter cells was thawed, and cells were diluted into 10 mL of growth media (Ham's F12/10% HI FBS/1% PSG) and used to seed a T225 flask containing 50 mL of growth media. Cells were cultured for 2 days.
On the day of the assay, cells were dissociated in 5 mL cell dissociation buffer (enzyme free—Invitrogen) for 10-15 minutes at 37° C. Dissociated cells were diluted with 10 mL of growth media and counted. Cell counts were routinely ˜2×10^7 per T225. Cells were then pelleted at 1500 rpm for 5 min. Supernatant was aspirated, and cells were re-suspended in HBSS/20 mM Hepes, pH 7.4 to a cell density of 1×10^6/mL.
cAMP levels were determined using the Cisbio HTRF method. HRTF reagents (cAMP-HTRF acceptor fluorophore (d2) conjugate and cryptate-labeled anti-cAMP antibody) were prepared according to maunfacturers instructions. 5 μL of each were added to each well of an assay plate and incubated for 1 h at RT. The plate was then read on an Envision reader using the HTRF protocol, and data were exported for analysis.
as §2

T1 sequence (P14416 whole entry, canonical isoform): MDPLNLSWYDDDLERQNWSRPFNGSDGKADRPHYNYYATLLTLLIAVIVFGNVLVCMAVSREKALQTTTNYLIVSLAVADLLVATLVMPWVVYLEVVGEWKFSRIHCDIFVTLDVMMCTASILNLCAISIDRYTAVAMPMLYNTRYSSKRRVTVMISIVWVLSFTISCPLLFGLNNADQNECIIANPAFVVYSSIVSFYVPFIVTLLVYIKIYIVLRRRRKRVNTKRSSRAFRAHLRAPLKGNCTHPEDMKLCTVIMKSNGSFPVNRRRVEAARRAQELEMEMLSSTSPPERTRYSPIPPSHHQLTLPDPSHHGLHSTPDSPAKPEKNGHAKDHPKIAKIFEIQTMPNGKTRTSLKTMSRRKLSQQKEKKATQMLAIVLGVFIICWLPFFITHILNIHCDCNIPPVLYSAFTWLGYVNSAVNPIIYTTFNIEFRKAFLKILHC

Structure (SMILES)	EC50 [1]	Emax [1]	IC50 [2]	Emax [2]	IC50 [3]	Emax [3]
O=c1ccc2ccc(OCCCCN3CCc4ccsc4C3)nc2[nH]1 [Compound 54, 7-(4-(4,5-dihydrothieno[2,3-c]pyridin-6(7H)-yl)butoxy)-1,8-naphthyridin-2(1H)-one]	> 10000 nM	< 10%	< 10 nM	> 75%	> 10000 nM	< 10%
O=C1CCc2ccc(OCCCCN3CCc4c(cccc4C(F)(F)F)C3)nc2N1 [Compound 77, 7-(4-(5-(trifluoromethyl)-3,4-dihydroisoquinolin-2(1H)-yl)butoxy)-3,4-dihydro-1,8-naphthyridin-2(1H)-one]	100 to 1000 nM	50 to 75%	> 10000 nM	< 10%	10 to 100 nM	50 to 75%
O=c1ccc2ccc(OCCCCN3CCc4ccccc4C3)nc2[nH]1 [Compound 52, 7-(4-(3,4-dihydroisoquinolin-2(1H)-yl)butoxy)-1,8-naphthyridin-2(1H)-one]	< 10 nM	10 to 25%	10 to 100 nM	> 75%	< 10 nM	50 to 75%
N#Cc1ccc2c(c1)CCN(CCCCOc1ccc3c(n1)NC(=O)CC3)C2 [Compound 73, 2-(4-((7-oxo-5,6,7,8-tetrahydro-1,8-naphthyridin-2-yl)oxy)butyl)-1,2,3,4-tetrahydroisoquinoline-6-carbonitrile]	> 10000 nM	< 10%	100 to 1000 nM	> 75%	> 10000 nM	< 10%
Oc1cccc2ccc(OCCCCN3CCc4ccsc4C3)nc12 [Compound 19, 2-(4-(4,5-dihydrothieno[2,3-c]pyridin-6(7H)-yl)butoxy)quinolin-8-ol]	> 10000 nM	< 10%	1000 to 10000 nM	> 75%	> 10000 nM	< 10%
O=C1NCCc2ccc(OCCCCN3CCc4ccccc4C3)nc2N1 [Compound 83, 8-(4-(3,4-dihydroisoquinolin-2(1H)-yl)butoxy)-4,5-dihydro-1H-pyrido[2,3-d][1,3]diazepin-2(3H)-one]	> 10000 nM	< 10%	10 to 100 nM	> 75%	> 10000 nM	< 10%
O=C1CCc2ccc(OCCCCN3CCc4ncncc4C3)cc2N1 [Compound 23, 7-(4-(7,8-dihydropyrido[4,3-d]pyrimidin-6(5H)-yl)butoxy)-3,4-dihydroquinolin-2(1H)-one]	100 to 1000 nM	10 to 25%	1000 to 10000 nM	25 to 50%	100 to 1000 nM	50 to 75%
O=C1CCc2ccc(OCCCCN3CCc4nn(-c5ccccc5)cc4C3)cc2N1 [Compound 30, 7-(4-(2-phenyl-6,7-dihydro-2H-pyrazolo[4,3-c]pyridin-5(4H)-yl)butoxy)-3,4-dihydroquinolin-2(1H)-one]	< 10 nM	10 to 25%	10 to 100 nM	> 75%	10 to 100 nM	25 to 50%
O=C1NCCc2ccc(OCCCCN3CCc4c(Cl)cccc4C3)nc2N1 [Compound 88, 8-(4-(5-chloro-3,4-dihydroisoquinolin-2(1H)-yl)butoxy)-4,5-dihydro-1H-pyrido[2,3-d][1,3]diazepin-2(3H)-one]	10 to 100 nM	25 to 50%	100 to 1000 nM	25 to 50%	< 10 nM	50 to 75%
O=C1CCc2ccc(OCCCCN3CCc4sccc4C3)nc2N1 [Compound 69, 7-(4-(6,7-dihydrothieno[3,2-c]pyridin-5(4H)-yl)butoxy)-3,4-dihydro-1,8-naphthyridin-2(1H)-one]	> 10000 nM	< 10%	10 to 100 nM	> 75%	> 10000 nM	< 10%
c1ccc(N2CCN(CCCCOc3ccc4cn[nH]c4c3)CC2)nc1 [Compound 94, 6-(4-(4-(pyridin-2-yl)piperazin-1-yl)butoxy)-1H-indazole]	< 10 nM	> 75%	> 10000 nM	< 10%	< 10 nM	> 75%
N#Cc1ccc2c(c1)CCN(CCCCOc1ccc3cccc(O)c3n1)C2 [Compound 15, 2-(4-((8-hydroxyquinolin-2-yl)oxy)butyl)-1,2,3,4-tetrahydroisoquinoline-6-carbonitrile]	> 10000 nM	< 10%	1000 to 10000 nM	> 75%	> 10000 nM	< 10%
CCC(=O)Nc1cccc(OCCCCN2CCc3ccccc3C2)n1 [Compound 41, N-(6-(4-(3,4-dihydroisoquinolin-2(1H)-yl)butoxy)pyridin-2-yl)-propionamide]	> 10000 nM	< 10%	100 to 1000 nM	> 75%	> 10000 nM	< 10%
COc1ccc(-n2cc3c(n2)CCN(CCCCOc2ccc4c(c2)NC(=O)CC4)C3)cc1 [Compound 39, 7-(4-(2-(4-methoxyphenyl)-6,7-dihydro-2H-pyrazolo[4,3-c]pyridin-5(4H)-yl)butoxy)-3,4-dihydroquinolin-2(1H)-one]	> 10000 nM	< 10%	1000 to 10000 nM	> 75%	> 10000 nM	< 10%
Oc1cccc2ccc(OCCCCN3CCc4cc(C(F)(F)F)ccc4C3)nc12 [Compound 17, 2-(4-(6-(trifluoromethyl)-3,4-dihydroisoquinolin-2(1H)-yl)butoxy)quinolin-8-ol]	> 10000 nM	< 10%	1000 to 10000 nM	> 75%	> 10000 nM	< 10%
O=C1NCCc2ccc(OCCCCN3CCc4nn(-c5ccccc5)cc4C3)nc2N1 [Compound 89, 8-(4-(2-phenyl-6,7-dihydro-2H-pyrazolo[4,3-c]pyridin-5(4H)-yl)butoxy)-4,5-dihydro-1H-pyrido[2,3-d][1,3]diazepin-2(3H)-one]	10 to 100 nM	25 to 50%	10 to 100 nM	50 to 75%	10 to 100 nM	25 to 50%
CCOc1cccnc1N1CCN(CCCCOc2ccc3cccc(O)c3n2)CC1 [Compound 10, 2-(4-(4-(3-ethoxypyridin-2-yl)piperazin-1-yl)butoxy)quinolin-8-ol]	< 10 nM	10 to 25%	10 to 100 nM	> 75%	< 10 nM	25 to 50%
Cc1cccc(N2CCN(CCCCOc3ccc4cn[nH]c4n3)CC2)c1C [Compound 3, 6-(4-(4-(2,3-dimethylphenyl)piperazin-1-yl)butoxy)-1H-pyrazolo[3,4-b]pyridine]	> 10000 nM	< 10%	100 to 1000 nM	> 75%	10 to 100 nM	10 to 25%
Cc1ccc2c(c1)CN(CCCCOc1ccc3c(n1)NC(=O)CC3)CC2 [Compound 81, 7-(4-(7-methyl-3,4-dihydroisoquinolin-2(1H)-yl)butoxy)-3,4-dihydro-1,8-naphthyridin-2(1H)-one]	> 10000 nM	< 10%	10 to 100 nM	> 75%	> 10000 nM	< 10%
Clc1cccc2c1CCN(CCCCOc1cccc(-c3cc[nH]n3)n1)C2 [Compound 45, 2-(4-((6-(1H-pyrazol-3-yl)pyridin-2-yl)oxy)butyl)-5-chloro-1,2,3,4-tetrahydroisoquinoline]	10 to 100 nM	> 75%	> 10000 nM	< 10%	< 10 nM	> 75%
